Like-named read-outs stand apart in the source and are kept apart here.
Legend:
Type in all cases: biochemical
[1] = test system: creatine kinase (CK) in human serum; assay: CK activity measured with enzyme and substrate solutions stored at 10° C. for up to 7 months (Example 2 / Comparative Example 2); conditions: for relative value of CK activity: enzyme solution prepared at the time of use = 100%
Protocol: An enzyme solution was prepared in the same manner as in Example 1 by use of the same reagents as in Example 1 except for using 100 mM of TG in place of the CK reactivator(s) used in Example 1.
Different 10 fresh human serum samples were used for different measuring operations.
CK activity was measured by the same procedure as described in Example 1 except for using the above-mentioned enzyme solution and substrate solution, both solutions stored at 10° C. for a predetermined time, and each of the above-mentioned samples.
An enzyme solution was prepared in the same manner as in Example 1 by use of the same reagents as in Example 1 except for using 26 mM of NAC in place of the CK reactivator(s) used in Example 1.
CK activity was measured by the same procedure as described in Example 1 except for using the above-mentioned enzyme solution and substrate solution, both solutions stored at 10° C. for a predetermined period, and each of the above-mentioned samples.

[2] = test system: creatine kinase (CK) in human serum; assay: CK activity measured with enzyme solutions containing SH compounds as CK reactivator, fresh and after 1 month of storage (Example 1 / Comparative Example 1); conditions: for CK activity value, Average: average of 5 samples; for CK activity, relative value: NAC just after preparation = 100%
Protocol: The resulting solution was adjusted to pH 6.7 with sodium hydroxide and stored at a predetermined temperature for a predetermined period. The thus obtained solution were used as enzyme solutions.
(§1) Five fresh human serum samples were used.
(§2) To 8 μl of each sample was added 320 μl of each enzyme solution, followed by preincubation for 5 minutes. Then, 80 μl of the substrate solution was added to initiate the reaction and the change of absorbance per minute was measured for 3 minutes from 2 minutes after the addition of the substrate solution. The CK activity value was calculated from the molecular extinction coefficient of the NADPH produced.
(§3) As a measuring apparatus, an Autoanalyzer Hitachi Model 7150 was used, and the measurement was carried out at 37° C. by use of dual wavelength (λ1 =405 nm, λ2 =340 nm).
Enzyme solutions were prepared in the same manner as in Example 1 by use of the same reagents as in Example 1 except for using a predetermined concentration(s) of one or two SH compounds properly selected from the above-mentioned CK reactivators, in place of the CK reactivator(s) used in Example 1.
CK activity was measured in the same manner as in Example 1.

[3] = biological target: T1, creatine kinase (CK) in human serum (Homo sapiens, UniProt P06732); assay: Inhibitory effect of oxidized products of SH compounds on CK activity (HK/G6PDH UV method, NAC 26 mM as reactivator); conditions: for CK activity value / CK activity value, Average: 5 mM SH compound oxidized product; for CK activity value: NAC 26 mM, 37° C.; for CK activity value, Average: average of 5 samples; for activity at 5000 µM: read-out: CK activity, relative value
T1 construct: Five fresh human serum samples were used; from tissue; host or cells: fresh human serum
Protocol: Investigation on the inhibitory effect of oxidized products of SH compounds on CK activity
Thus, oxidized products of the SH compounds, respectively, were obtained.
NAC (26 mM) as CK reactivator, each 5 mM of SH compound oxidized product obtained above, 2.6 mM of ADP, 3.9 u/ml of HK (available from Oriental Yeast Co., Ltd.), 8.0 u/ml of G6PDH (available from Oriental Yeast Co., Ltd.), 2.6 mM of NADP, 21 mM of glucose, 10 mM of magnesium acetate, 6.5 mM of AMP, 0.013 mM of APSA, 0.1% (w/v) of sodium azide and 2 mM of EDTA-2Na were dissolved in 128 mM imidazole-acetate buffer (pH 6.7). The thus obtained solutions were adjusted to pH 6.7 with sodium hydroxide to obtain enzyme solutions.
An enzyme solution containing no SH compound oxidized product was prepared as a control standard solution.
as §1, §2, §3
Tables 2 and 3 show the CK activity values of the 5 samples in each case and the average thereof.

[4] = enzyme solution prepared at the time of use, 1 month measurement, 10 samples
[5] = enzyme solution prepared at the time of use, 3 month measurement, 10 samples
[6] = enzyme solution prepared at the time of use, 6 month measurement, 10 samples
[7] = enzyme solution prepared at the time of use, 7 month measurement, 10 samples
[8] = just after preparation, average of 10 human serum samples, TG 100 mM or NAC 26 mM
[9] = solutions stored at 10° C. for 1 month, 10 samples
[10] = solutions stored at 10° C. for 3 month, 10 samples
[11] = solutions stored at 10° C. for 6 month, 10 samples
[12] = solutions stored at 10° C. for 7 month, 10 samples
[13] = Sample 1, enzyme solution just after preparation, TG 100 mM, 2ME 26 mM, 2MES 26 mM, NAC 26 mM
[14] = Sample 1, enzyme solution stored at 10° C. for 1 month, TG 100, 2ME 26, 2MES 26, NAC 26, L-cysteine 6.5, GSH 12, TDG 5, DTT 6.5 mM
[15] = Sample 1, enzyme solution stored at 20° C. for 1 month, TG 100, 2ME 26, 2MES 26, NAC 26, L-cysteine 6.5, GSH 12, TDG 5, DTT 6.5 mM
[16] = Sample 2, enzyme solution just after preparation, TG 100 mM, 2ME 26 mM, 2MES 26 mM, NAC 26 mM
[17] = Sample 2, enzyme solution stored at 10° C. for 1 month, TG 100, 2ME 26, 2MES 26, NAC 26, L-cysteine 6.5, GSH 12, TDG 5, DTT 6.5 mM
[18] = Sample 2, enzyme solution stored at 20° C. for 1 month, TG 100, 2ME 26, 2MES 26, NAC 26, L-cysteine 6.5, GSH 12, TDG 5, DTT 6.5 mM
[19] = Sample 3, enzyme solution just after preparation, TG 100 mM, 2ME 26 mM, 2MES 26 mM, NAC 26 mM
[20] = Sample 3, enzyme solution stored at 10° C. for 1 month, TG 100, 2ME 26, 2MES 26, NAC 26, L-cysteine 6.5, GSH 12, TDG 5, DTT 6.5 mM
[21] = Sample 3, enzyme solution stored at 20° C. for 1 month, TG 100, 2ME 26, 2MES 26, NAC 26, L-cysteine 6.5, GSH 12, TDG 5, DTT 6.5 mM
[22] = Sample 4, enzyme solution just after preparation, TG 100 mM, 2ME 26 mM, 2MES 26 mM, NAC 26 mM
[23] = Sample 4, enzyme solution stored at 10° C. for 1 month, TG 100, 2ME 26, 2MES 26, NAC 26, L-cysteine 6.5, GSH 12, TDG 5, DTT 6.5 mM
[24] = Sample 4, enzyme solution stored at 20° C. for 1 month, TG 100, 2ME 26, 2MES 26, NAC 26, L-cysteine 6.5, GSH 12, TDG 5, DTT 6.5 mM
[25] = Sample 5, enzyme solution just after preparation, TG 100 mM, 2ME 26 mM, 2MES 26 mM, NAC 26 mM
[26] = Sample 5, enzyme solution stored at 10° C. for 1 month, TG 100, 2ME 26, 2MES 26, NAC 26, L-cysteine 6.5, GSH 12, TDG 5, DTT 6.5 mM
[27] = Sample 5, enzyme solution stored at 20° C. for 1 month, TG 100, 2ME 26, 2MES 26, NAC 26, L-cysteine 6.5, GSH 12, TDG 5, DTT 6.5 mM
[28] = enzyme solution just after preparation, TG 100 mM, 2ME 26 mM, 2MES 26 mM, NAC 26 mM
[29] = enzyme solution stored at 10° C. for 1 month, TG 100, 2ME 26, 2MES 26, NAC 26, L-cysteine 6.5, GSH 12, TDG 5, DTT 6.5 mM
[30] = enzyme solution stored at 20° C. for 1 month, TG 100, 2ME 26, 2MES 26, NAC 26, L-cysteine 6.5, GSH 12, TDG 5, DTT 6.5 mM
[31] = enzyme solution just after preparation
[32] = enzyme solution stored at 10° C. for 1 month
[33] = enzyme solution stored at 20° C. for 1 month
[34] = average with enzyme solution containing no SH compound oxidized product = 100%, 5 mM oxidized product

T1 sequence (P06732 whole entry): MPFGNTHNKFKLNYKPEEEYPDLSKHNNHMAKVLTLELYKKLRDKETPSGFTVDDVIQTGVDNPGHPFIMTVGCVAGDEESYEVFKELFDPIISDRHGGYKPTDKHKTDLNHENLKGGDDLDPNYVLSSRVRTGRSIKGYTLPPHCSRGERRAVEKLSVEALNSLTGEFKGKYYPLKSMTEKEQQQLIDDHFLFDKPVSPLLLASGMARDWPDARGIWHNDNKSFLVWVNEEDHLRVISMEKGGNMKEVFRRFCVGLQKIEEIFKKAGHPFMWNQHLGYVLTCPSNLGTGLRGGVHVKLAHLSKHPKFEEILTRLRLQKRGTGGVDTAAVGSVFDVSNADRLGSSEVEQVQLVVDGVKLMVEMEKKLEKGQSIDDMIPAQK

CC(=O)N[C@@H](CS)C(=O)O [NAC, N-acetylcysteine]
measured value of CK activity after storage ([1]; after 3 months of storage at 10° C.): markedly lowered
average of CK activity values [1, 4]: 196 IU/l.
average of CK activity values [1, 5]: 192 IU/l.
average of CK activity values [1, 6]: 162 IU/l.
average of CK activity values [1, 7]: 192 IU/l.
average of CK activity values [1, 8]: 234 IU/l.
average of CK activity values [1, 9]: 190 IU/l.
average of CK activity values [1, 10]: 146 IU/l.
average of CK activity values [1, 11]: 64 IU/l.
average of CK activity values [1, 12]: 62 IU/l.
relative value of CK activity ([1]; stored at 10° C. for 1 month): 96.9%
relative value of CK activity ([1]; stored at 10° C. for 3 month): 76.0%
relative value of CK activity ([1]; stored at 10° C. for 6 month): 39.5%
relative value of CK activity ([1]; stored at 10° C. for 7 month): 32.3%
CK activity value [2, 13]: 183 IU/l
CK activity value [2, 14]: 184 IU/l
CK activity value [2, 15]: 166 IU/l
CK activity value [2, 16]: 544 IU/l
CK activity value [2, 17]: 550 IU/l
CK activity value [2, 18]: 499 IU/l
CK activity value [2, 19]: 151 IU/l
CK activity value [2, 20]: 152 IU/l
CK activity value [2, 21]: 136 IU/l
CK activity value [2, 22]: 56 IU/l
CK activity value [2, 23]: 55 IU/l
CK activity value [2, 24]: 50 IU/l
CK activity value [2, 25]: 87 IU/l
CK activity value [2, 26]: 88 IU/l
CK activity value [2, 27]: 78 IU/l
CK activity value, Average [2, 28]: 204 IU/l
CK activity value, Average [2, 29]: 206 IU/l
CK activity value, Average [2, 30]: 186 IU/l
CK activity, relative value [2, 31]: 100.0%
CK activity, relative value [2, 32]: 101.0%
CK activity, relative value [2, 33]: 91.2%

OC[C@H]1O[C@@H](SS[C@@H]2O[C@H](CO)[C@@H](O)[C@H](O)[C@H]2O)[C@H](O)[C@@H](O)[C@@H]1O [TDG oxidized product]
inhibition of CK activity by oxidized product ([3]; 5 mM oxidized product): hardly inhibited CK activity
CK activity value ([3]; Sample 1 (fresh human serum)): 136 IU/l.
CK activity value ([3]; Sample 2): 388 IU/l.
CK activity value ([3]; Sample 3): 102 IU/l.
CK activity value ([3]; Sample 4): 302 IU/l.
CK activity value ([3]; Sample 5): 90 IU/l.
CK activity value, Average [3]: 204 IU/l.
activity at 5000 µM [3, 34]: 90.2%

OCC(O)CSSCC(O)CO (stereo not shown) [TG oxidized product]
inhibition of CK activity by oxidized product ([3]; 5 mM oxidized product): hardly inhibited CK activity
CK activity value ([3]; Sample 1 (fresh human serum)): 153 IU/l.
CK activity value ([3]; Sample 2): 422 IU/l.
CK activity value ([3]; Sample 3): 112 IU/l.
CK activity value ([3]; Sample 4): 333 IU/l.
CK activity value ([3]; Sample 5): 106 IU/l.
CK activity value, Average [3]: 226 IU/l.
activity at 5000 µM [3, 34]: 100%

OCC(O)CS (stereo not shown) [TG, thioglycerol]
average of CK activity values [1, 4]: 204 IU/l.
average of CK activity values [1, 5]: 200 IU/l.
average of CK activity values [1, 6]: 168 IU/l.
average of CK activity values [1, 7]: 192 IU/l.
average of CK activity values [1, 8]: 240 IU/l.
average of CK activity values [1, 9]: 202 IU/l.
average of CK activity values [1, 10]: 198 IU/l.
average of CK activity values [1, 11]: 168 IU/l.
average of CK activity values [1, 12]: 190 IU/l.
relative value of CK activity ([1]; stored at 10° C. for 1 month): 99.0%
relative value of CK activity ([1]; stored at 10° C. for 3 month): 99.0%
relative value of CK activity ([1]; stored at 10° C. for 6 month): 100.0%
relative value of CK activity ([1]; stored at 10° C. for 7 month): 99.0%
retaining CK-reactivating ability for a long period of time in an aqueous solution [2]: capable of retaining CK-reactivating ability for a long period of time
CK activity value [2, 13]: 184 IU/l
CK activity value [2, 14]: 183 IU/l
CK activity value [2, 15]: 180 IU/l
CK activity value [2, 16]: 553 IU/l
CK activity value [2, 17]: 556 IU/l
CK activity value [2, 18]: 549 IU/l
CK activity value [2, 19]: 151 IU/l
CK activity value [2, 20]: 154 IU/l
CK activity value [2, 21]: 152 IU/l
CK activity value [2, 22]: 58 IU/l
CK activity value [2, 23]: 57 IU/l
CK activity value [2, 24]: 57 IU/l
CK activity value [2, 25]: 88 IU/l
CK activity value [2, 26]: 88 IU/l
CK activity value [2, 27]: 88 IU/l
CK activity value, Average [2, 28]: 207 IU/l
CK activity value, Average [2, 29]: 208 IU/l
CK activity value, Average [2, 30]: 206 IU/l
CK activity, relative value [2, 31]: 101.4%
CK activity, relative value [2, 32]: 101.9%
CK activity, relative value [2, 33]: 100.9%

c1ccc(SSc2ccccc2)cc1 [Thiophenol oxidized product]
CK activity value ([3]; Sample 1 (fresh human serum)): 73 IU/l.
CK activity value ([3]; Sample 2): 180 IU/l.
CK activity value ([3]; Sample 3): 55 IU/l.
CK activity value ([3]; Sample 4): 139 IU/l.
CK activity value ([3]; Sample 5): 50 IU/l.
CK activity value, Average [3]: 99 IU/l.
activity at 5000 µM [3]: 44.1%

Mercapto-succinic acid
CK activity value ([3]; Sample 1 (fresh human serum)): 122 IU/l.
CK activity value ([3]; Sample 2): 330 IU/l.
CK activity value ([3]; Sample 3): 98 IU/l.
CK activity value ([3]; Sample 4): 285 IU/l.
CK activity value ([3]; Sample 5): 80 IU/l.
CK activity value, Average [3]: 183 IU/l.
CK activity, relative value [3, 34]: 81.0%
